Data taken from patent publication US20030216257A1, “1-aryl-4-alkyl halide-2(1h)-pyridones and their use as herbicides” (priority 2000, published 2003).

Assays:
Assay in all cases: Greenhouse experiments, herbicidal action (pre-/post-emergence treatment)
Type in all cases: in vivo
Conditions in all cases: post-emergence rate 0.0313 and 0.0156 kg of a.S./ha, scale 0 to 100
COMBE (dayflower) = test system: COMBE (dayflower)
From the text: (§1) The culture containers used were plastic pots with loamy sand containing approximately 3.0% of humus as the substrate. The seeds of the test plants were sown separately for each species.
(§2) For the pre-emergence treatment, the active compounds, which had been suspended or emulsified in water, were applied directly after seeding by means of finely distributing nozzles. The containers were irrigated gently to promote germination and growth and subsequently covered with transparent plastic hoods until the plants had taken root. This cover causes uniform germination of the test plants unless this was not adversely affected by the active compounds.
(§3) For the post-emergence treatment, the test plants were initially grown to a height of 3 to 15 cm, depending on the habit, and then treated with the active compounds which had been suspended or emulsified in water. To this end, the test plants were either sown directly and cultivated in the same containers, or they were initially cultivated separately as seedlings and transplanted into the test containers a few days prior to the treatment. The application rate for the post-emergence treatment was 0.0313 and 0.0156 kg of a. S./ha.
(§4) The plants were kept at temperatures of 10-25° C. and 20-35° C., depending on the species. The test period extended over 2 to 4 weeks. During this time, the plants were tended, and their reaction to the individual treatments was evaluated.
(§5) Evaluation was carried out using a scale from 0 to 100. 100 means no emergence of the plants, or complete destruction of at least the above-ground parts, and 0 means no damage or normal course of growth.
(§6) The plants used in the greenhouse experiments were of the following species: […]

AMARE (redroot pigweed) = test system: AMARE (redroot pigweed)
From the text: as §1, §2, §3, §4, §5, §6

SETFA (giant foxtail) = test system: SETFA (giant foxtail)
From the text: as §1, §2, §3, §4, §5, §6

[1] = test system: GALAP (catchweed bedstraw)
From the text: as §1, §2, §3, §4, §5, §6

ABUTH (velvet leaf) = test system: ABUTH (velvet leaf)
From the text: as §1, §2, §3, §4, §5, §6

Measured: herbicidal activity against harmful plant

CC(C)OC(=O)c1cc(-n2c(Cl)cc(C(F)(F)F)cc2=O)c(F)cc1Cl [Example 1, Isopropyl 2-Chloro-5-[2-chloro-6-oxo-4-(trifluoromethyl)-1-(6H)-pyridinyl]-4-fluorobenzoate]
very good activity: all assays above
